Measured values reported in publication PMC9481151, “Discovery of new symmetrical and asymmetrical nitrile-containing 1,4-dihydropyridine derivatives as dual kinases and P-glycoprotein inhibitors: synthesis, in vitro assays, and in silico studies” (Journal of Enzyme Inhibition and Medicinal Chemistry, 2022).

Legend:
[1] = tested on: MOLT-4; assay: NCI single dose (10 µM) SRB screen; format: cell-based, human; details: leukaemia, 48 h
[2] = tested on: RPMI-8226; assay: NCI single dose (10 µM) SRB screen; format: cell-based, human; details: leukaemia, 48 h
[3] = tested on: SR; assay: NCI single dose (10 µM) SRB screen; format: cell-based, human; details: leukaemia, 48 h
[4] = tested on: A549/ATCC; assay: NCI single dose (10 µM) SRB screen; format: cell-based, human; details: non-small cell lung cancer, 48 h
[5] = tested on: HOP-62; assay: NCI single dose (10 µM) SRB screen; format: cell-based, human; details: non-small cell lung cancer, 48 h
[6] = tested on: HOP-92; assay: NCI single dose (10 µM) SRB screen; format: cell-based, human; details: non-small cell lung cancer, 48 h
[7] = tested on: NCI-H226; assay: NCI single dose (10 µM) SRB screen; format: cell-based, human; details: non-small cell lung cancer, 48 h
[8] = tested on: NCI-H23; assay: NCI single dose (10 µM) SRB screen; format: cell-based, human; details: non-small cell lung cancer, 48 h
[9] = tested on: NCI-H322M; assay: NCI single dose (10 µM) SRB screen; format: cell-based; details: non-small cell lung cancer, 48 h
[10] = tested on: NCI-H522; assay: NCI single dose (10 µM) SRB screen; format: cell-based, human; details: non-small cell lung cancer, 48 h
[11] = tested on: COLO 205; assay: NCI single dose (10 µM) SRB screen; format: cell-based, human; details: colon cancer, 48 h
[12] = tested on: HCC-2998; assay: NCI single dose (10 µM) SRB screen; format: cell-based, human; details: colon cancer, 48 h
[13] = tested on: HCT-15; assay: NCI single dose (10 µM) SRB screen; format: cell-based, human; details: colon cancer, 48 h
[14] = tested on: SW-620; assay: NCI single dose (10 µM) SRB screen; format: cell-based, human; details: colon cancer, 48 h
[15] = tested on: SF-268; assay: NCI single dose (10 µM) SRB screen; format: cell-based, human; details: CNS cancer, 48 h
[16] = tested on: SF-295; assay: NCI single dose (10 µM) SRB screen; format: cell-based, human; details: CNS cancer, 48 h
[17] = tested on: SF-539; assay: NCI single dose (10 µM) SRB screen; format: cell-based, human; details: CNS cancer, 48 h
[18] = tested on: SNB-19; assay: NCI single dose (10 µM) SRB screen; format: cell-based, human; details: CNS cancer, 48 h
[19] = tested on: SNB-75; assay: NCI single dose (10 µM) SRB screen; format: cell-based, human; details: CNS cancer, 48 h
[20] = tested on: U251; assay: NCI single dose (10 µM) SRB screen; format: cell-based, human; details: CNS cancer, 48 h
[21] = tested on: LOX IMVI; assay: NCI single dose (10 µM) SRB screen; format: cell-based, human; details: melanoma, 48 h
[22] = tested on: MALME-3M; assay: NCI single dose (10 µM) SRB screen; format: cell-based, human; details: melanoma, 48 h
[23] = tested on: M14; assay: NCI single dose (10 µM) SRB screen; format: cell-based, human; details: melanoma, 48 h
[24] = tested on: MDA-MB-435; assay: NCI single dose (10 µM) SRB screen; format: cell-based, human; details: melanoma, 48 h
[25] = tested on: SK-MEL-28; assay: NCI single dose (10 µM) SRB screen; format: cell-based, human; details: melanoma, 48 h
[26] = tested on: UACC-257; assay: NCI single dose (10 µM) SRB screen; format: cell-based, human; details: melanoma, 48 h
[27] = tested on: UACC-62; assay: NCI single dose (10 µM) SRB screen; format: cell-based, human; details: melanoma, 48 h
[28] = tested on: IGROV1; assay: NCI single dose (10 µM) SRB screen; format: cell-based, human; details: ovarian cancer, 48 h
[29] = tested on: OVCAR-3; assay: NCI single dose (10 µM) SRB screen; format: cell-based, human; details: ovarian cancer, 48 h
[30] = tested on: OVCAR-4; assay: NCI single dose (10 µM) SRB screen; format: cell-based, human; details: ovarian cancer, 48 h
[31] = tested on: OVCAR-8; assay: NCI single dose (10 µM) SRB screen; format: cell-based, human; details: ovarian cancer, 48 h
[32] = tested on: NCI/ADR-RES; assay: NCI single dose (10 µM) SRB screen; format: cell-based, human; details: ovarian cancer, 48 h
[33] = tested on: 786-0; assay: NCI single dose (10 µM) SRB screen; format: cell-based, human; details: renal cancer, 48 h
[34] = tested on: CAKI-1; assay: NCI single dose (10 µM) SRB screen; format: cell-based, human; details: renal cancer, 48 h
[35] = tested on: RXF 393; assay: NCI single dose (10 µM) SRB screen; format: cell-based, human; details: renal cancer, 48 h
[36] = tested on: SN12C; assay: NCI single dose (10 µM) SRB screen; format: cell-based, human; details: renal cancer, 48 h
[37] = tested on: TK-10; assay: NCI single dose (10 µM) SRB screen; format: cell-based, human; details: renal cancer, 48 h
[38] = tested on: UO-31; assay: NCI single dose (10 µM) SRB screen; format: cell-based, human; details: renal cancer, 48 h
[39] = tested on: PC-3; assay: NCI single dose (10 µM) SRB screen; format: cell-based, human; details: prostate cancer, 48 h
[40] = tested on: DU-145; assay: NCI single dose (10 µM) SRB screen; format: cell-based, human; details: prostate cancer, 48 h
[41] = tested on: MDA-MB-231; assay: NCI single dose (10 µM) SRB screen; format: cell-based, human; details: breast cancer, 48 h
[42] = tested on: HS578T; assay: NCI single dose (10 µM) SRB screen; format: cell-based, human; details: breast cancer, 48 h
[43] = tested on: BT-549; assay: NCI single dose (10 µM) SRB screen; format: cell-based, human; details: breast cancer, 48 h
[44] = tested on: T-47D; assay: NCI single dose (10 µM) SRB screen; format: cell-based, human; details: breast cancer, 48 h
[45] = tested on: MDA-MB-468; assay: NCI single dose (10 µM) SRB screen; format: cell-based, human; details: breast cancer, 48 h
[46] = tested on: NCI 60 cancer cell lines; assay: NCI single dose (10 µM) SRB screen, mean over panel; format: cell-based, human; details: mean over 60 cell lines, 48 h
[47] = tested on: Staphylococcus aureus; assay: Agar well diffusion method
[48] = tested on: Bacillus subtilis; assay: Agar well diffusion method
[49] = tested on: Escherichia coli; assay: Agar well diffusion method
[50] = tested on: Candida albicans; assay: Agar well diffusion method
[51] = tested on: Aspergillus flavus; assay: Agar well diffusion method

COCCOC(=O)C1=C(C)NC(C)=C(C(=O)OC)C1c1cccc(C#N)c1 (racemic) [Compound 2d, (±)-3-(2-Methoxyethyl) 5-methyl 4-(3-cyanophenyl)-2,6-dimethyl-1,4-dihydropyridine-3,5-dicarboxylate]
GI% MOLT-4 [1]: – (Only GI% ≥ 10 are shown)
GI% RPMI-8226 [2]: – (Only GI% ≥ 10 are shown)
GI% SR [3]: – (Only GI% ≥ 10 are shown)
GI% A549/ATCC [4]: – (Only GI% ≥ 10 are shown)
GI% HOP-62 [5]: – (Only GI% ≥ 10 are shown)
GI% HOP-92 [6]: – (Only GI% ≥ 10 are shown)
GI% NCI-H226 [7]: – (Only GI% ≥ 10 are shown)
GI% NCI-H23 [8]: – (Only GI% ≥ 10 are shown)
GI% NCI-H322M [9]: – (Only GI% ≥ 10 are shown)
GI% NCI-H522 [10]: – (Only GI% ≥ 10 are shown)
GI% COLO 205 [11]: – (Only GI% ≥ 10 are shown)
GI% HCC-2998 [12]: – (Only GI% ≥ 10 are shown)
GI% HCT-15 [13]: – (Only GI% ≥ 10 are shown)
GI% SW-620 [14]: – (Only GI% ≥ 10 are shown)
GI% SF-268 [15]: – (Only GI% ≥ 10 are shown)
GI% SF-295 [16]: – (Only GI% ≥ 10 are shown)
GI% SF-539 [17]: – (Only GI% ≥ 10 are shown)
GI% SNB-19 [18]: – (Only GI% ≥ 10 are shown)
GI% SNB-75 [19]: 15%
GI% U251 [20]: – (Only GI% ≥ 10 are shown)
GI% LOX IMVI [21]: – (Only GI% ≥ 10 are shown)
GI% MALME-3M [22]: – (Only GI% ≥ 10 are shown)
GI% M14 [23]: – (Only GI% ≥ 10 are shown)
GI% MDA-MB-435 [24]: – (Only GI% ≥ 10 are shown)
GI% SK-MEL-28 [25]: – (Only GI% ≥ 10 are shown)
GI% UACC-257 [26]: – (Only GI% ≥ 10 are shown)
GI% UACC-62 [27]: – (Only GI% ≥ 10 are shown)
GI% IGROV1 [28]: – (Only GI% ≥ 10 are shown)
GI% OVCAR-3 [29]: – (Only GI% ≥ 10 are shown)
GI% OVCAR-4 [30]: – (Only GI% ≥ 10 are shown)
GI% OVCAR-8 [31]: – (Only GI% ≥ 10 are shown)
GI% NCI/ADR-RES [32]: – (Only GI% ≥ 10 are shown)
GI% 786-0 [33]: – (Only GI% ≥ 10 are shown)
GI% CAKI-1 [34]: – (Only GI% ≥ 10 are shown)
GI% RXF 393 [35]: – (Only GI% ≥ 10 are shown)
GI% SN12C [36]: – (Only GI% ≥ 10 are shown)
GI% TK-10 [37]: – (Only GI% ≥ 10 are shown)
GI% UO-31 [38]: – (Only GI% ≥ 10 are shown)
GI% PC-3 [39]: – (Only GI% ≥ 10 are shown)
GI% DU-145 [40]: – (Only GI% ≥ 10 are shown)
GI% MDA-MB-231 [41]: – (Only GI% ≥ 10 are shown)
GI% HS578T [42]: – (Only GI% ≥ 10 are shown)
GI% BT-549 [43]: – (Only GI% ≥ 10 are shown)
GI% T-47D [44]: – (Only GI% ≥ 10 are shown)
GI% MDA-MB-468 [45]: – (Only GI% ≥ 10 are shown)
Mean GI% [46]: −2%
zone of inhibition at 1000 µg/mL ([47]; Staphylococcus aureus, 24 h, read-out: Diameter of inhibition zone, S. aureus): 15 mm
% activity index, S. aureus ([47]; relative to ciprofloxacin): 62.5%
zone of inhibition at 1000 µg/mL ([48]; Bacillus subtilis, 24 h, read-out: Diameter of inhibition zone, B. subtilis): 10 mm
% activity index, B. subtilis ([48]; relative to ciprofloxacin): 43.5%
zone of inhibition at 1000 µg/mL ([49]; Escherichia coli, 24 h, read-out: Diameter of inhibition zone, E. coli): 10 mm
% activity index, E. coli ([49]; relative to ciprofloxacin): 38.5%
zone of inhibition at 1000 µg/mL ([50]; Candida albicans, 24 h, read-out: Diameter of inhibition zone, C. albicans): 12 mm
% activity index, C. albicans ([50]; relative to clotrimazole): 44.4%
zone of inhibition at 1000 µg/mL ([51]; Aspergillus flavus, 24 h, read-out: Diameter of inhibition zone, A. flavus): 15 mm
% activity index, A. flavus ([51]; relative to clotrimazole): 60%
